# According to patent publication US10406157B2, “Tetrahydropyridopyrazine modulators of GPR6” (Takeda Pharmaceutical Company Limited, priority 2017, dated 2019):
# Assays:
# [1] = target: GPR6 receptor expressed in CHO-K1 cells (Homo sapiens (Human), UniProt P46095); test: In vitro inhibition of constitutive cAMP activity of GPR6 receptor (EC50); format: cell-based; conditions: CHO-K1 cells expressing GPR6
# Method: This cell-based assay measures the ability of test compounds to inhibit the constitutive cAMP activity of GPR6 receptor expressed in CHO-K1 cells. CHO cells are stably expressed with GPR6 receptor, whose expression is controlled by a tetracycline inducible element. The cells were cultured in medium containing F12K, 10% FBS, 1% Penn/Strep, 200 μg/mL Hygromycin. GPR6 receptor expression is induced for 20 hours with 2 μg/mL doxycycline (Sigma D9891) in growth media. After addition of doxycycline, the cells are plated at a density of 450-750 cells per well in 96-well half-volume black tissue culture plates (Costar) and placed in an incubator (37° C., 5% CO2) for 20 hours prior to cAMP assays.
# Culture media is removed from the cells and they are washed with 50 μL/well of Ringer's Buffer (MgCl2 0.047 mg/mL, NaH2PO4 0.18 mg/mL, Na2HPO4 0.1 mg/mL, KCl 0.34 mg/mL, NaHCO31.26 mg/mL, D-glucose 1.8 mg/mL, NaCl 7 mg/mL; pH=7.4). The test compounds are suspended in DMSO, diluted in Ringer's Buffer containing 0.5% fatty acid free BSA plus 300 μM 3-isobutyl-1-methylxanthine (IBMX), and incubated on the cells for 45 minutes at 37° C. and 5% CO2. […] Then ULIGHT™-anti-cAMP solution from the LANCE® kit is added and incubated on a shaker at room temperature for 1 hour prior to homogeneous time resolved fluorescence (HTRF) detection in a PerkinElmer EnVision plate reader. […]
# human hERG = human hERG (Homo sapiens (Human), UniProt Q12809); test: Inhibition of human hERG via automated whole cell patch clamp; format: cell-based; conditions: for IC50: CHO-K1 cells transfected with human hERG cDNA, patch clamp; for safety margin relative to inhibition of hERG: statement in words
# Chain of human hERG (Q12809 whole entry): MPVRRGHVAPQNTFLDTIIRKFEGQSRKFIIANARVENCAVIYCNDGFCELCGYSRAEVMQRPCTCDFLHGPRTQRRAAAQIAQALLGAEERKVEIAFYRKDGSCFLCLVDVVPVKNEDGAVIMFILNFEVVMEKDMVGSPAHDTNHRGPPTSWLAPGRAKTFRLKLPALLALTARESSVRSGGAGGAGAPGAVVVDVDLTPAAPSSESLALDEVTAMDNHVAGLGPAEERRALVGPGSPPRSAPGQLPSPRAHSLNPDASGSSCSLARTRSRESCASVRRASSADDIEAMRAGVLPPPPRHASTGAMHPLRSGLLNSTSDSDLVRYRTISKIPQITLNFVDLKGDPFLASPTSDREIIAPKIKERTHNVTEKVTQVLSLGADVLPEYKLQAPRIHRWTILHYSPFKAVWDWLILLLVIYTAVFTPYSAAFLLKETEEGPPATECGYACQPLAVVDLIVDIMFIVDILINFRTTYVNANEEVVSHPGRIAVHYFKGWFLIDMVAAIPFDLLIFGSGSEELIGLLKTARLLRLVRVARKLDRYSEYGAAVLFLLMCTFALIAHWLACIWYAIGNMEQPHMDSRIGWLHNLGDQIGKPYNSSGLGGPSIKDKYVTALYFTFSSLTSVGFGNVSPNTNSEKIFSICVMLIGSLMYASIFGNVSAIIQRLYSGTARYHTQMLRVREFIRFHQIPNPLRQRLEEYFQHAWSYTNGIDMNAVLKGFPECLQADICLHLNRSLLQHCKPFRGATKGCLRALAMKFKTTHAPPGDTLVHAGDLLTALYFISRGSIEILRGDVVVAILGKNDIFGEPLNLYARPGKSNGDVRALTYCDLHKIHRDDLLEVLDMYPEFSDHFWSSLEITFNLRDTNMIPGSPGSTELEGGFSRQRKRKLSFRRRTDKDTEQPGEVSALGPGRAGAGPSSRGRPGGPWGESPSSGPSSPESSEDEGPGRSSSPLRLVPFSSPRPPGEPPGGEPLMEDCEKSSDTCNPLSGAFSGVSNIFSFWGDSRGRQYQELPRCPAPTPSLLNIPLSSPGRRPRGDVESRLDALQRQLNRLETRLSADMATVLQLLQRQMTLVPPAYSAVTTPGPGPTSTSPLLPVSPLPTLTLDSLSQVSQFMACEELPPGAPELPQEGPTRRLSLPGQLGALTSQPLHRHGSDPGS
# Method: An automated whole cell patch-clamp system (QPATCH® 16) is used to record outward potassium currents from a single cell. The assay employs CHO-K1 (Chinese Hamster Ovary) cells stably transfected with human hERG cDNA. The cells are harvested by trypsinization and maintained in serum-free medium at room temperature before recording. The cells are washed and re-suspended in the extracellular solution before being applied to the automated patch-clamp sites. The test solutions are prepared in the aqueous extracellular solution (137 mM NaCl, 4 mM KCl, 1.8 mM CaCl2), 1 mM MgCl2, 10 mM D(+)-Glucose, 10 mM HEPES, pH adjusted to 7.4 with NaOH) on the day of patch-clamp assay. Seven concentrations (0.03, 0.1, 0.3, 1, 3, 10, and 30 μM) of the test compound are used to determine IC50. The aqueous intracellular solution contains 130 mM KCl, 10 mM NaCl, 1 mM MgCl2, 10 mM EGTA, 5 mM MgATP, and 10 mM HEPES (pH adjusted to 7.2 with KOH).
# After whole cell configuration is achieved, the cell is held at −80 mV. A 50 ms pulse to −40 mV is delivered to measure the leaking current, which is subtracted from the tail current on-line. Then the cell is depolarized to +20 mV for 2 seconds, followed by a 1 second pulse to −40 mV to reveal the hERG tail current. This paradigm is delivered once every 5 seconds to monitor the current amplitude. The assay is conducted at room temperature. The extracellular solution (control) is applied first and the cell is stabilized in the solution for 5 minutes. Then the test compound is applied from low to high concentrations sequentially on the same cell. The cells are incubated with each test concentration for 5 minutes. A reference compound E-4031 (N-(4-(1-(2-(6-methylpyridin-2-yl)ethyl)piperidine-4-carbonyl)phenyl)methanesulfonamide) is tested concurrently at multiple concentrations to obtain an IC50 value. The percent inhibition of hERG channel is calculated by comparing the tail current amplitude before and after application of the compound (the current difference is normalized to the control).
# human GPR6 = human GPR6 (Homo sapiens (Human), UniProt P46095); conditions: membranes from CHO-K1 cells expressing human GPR6, 3H radioligand
# Chain of human GPR6 (P46095 whole entry): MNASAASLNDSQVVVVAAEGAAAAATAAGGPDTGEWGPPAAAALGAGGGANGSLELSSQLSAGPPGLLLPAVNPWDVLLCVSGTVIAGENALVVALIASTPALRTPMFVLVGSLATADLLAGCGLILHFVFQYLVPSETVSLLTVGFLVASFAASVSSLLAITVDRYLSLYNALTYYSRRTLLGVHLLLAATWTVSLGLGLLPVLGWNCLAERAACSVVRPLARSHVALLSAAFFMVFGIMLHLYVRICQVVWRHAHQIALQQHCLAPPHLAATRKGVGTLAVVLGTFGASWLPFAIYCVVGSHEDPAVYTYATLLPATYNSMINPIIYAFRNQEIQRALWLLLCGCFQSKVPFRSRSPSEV
# Method: A competition binding assay using a filtration-based format is used to study the binding characteristics of GPR6 inverse agonists. The method employs membranes prepared from CHO-K1 cells expressing human GPR6 cDNA driven by a doxycycline inducible promoter. Assay ready 96 well plates (651201, Greiner, USA) containing serial dilutions of test compounds (1 μL of test ligand/well) are prepared in DMSO using liquid handlers (5 μM, final assay top concentration). Assay buffer (50 mM Tris, pH 7.4, 50 mM NaCl, 6 mM MgCl2, fatty acid free 0.1% BSA, 1:100 proteinase inhibitor cocktail, Sigma USA) is added (39 μL/well) and the plates are mixed on a plate shaker for 10 minutes. GPR6-specific ^3H radioligand is prepared in assay buffer and is added to each well (40 μL, 2.4 nM final assay concentration).
# To initiate the binding reactions, 40 μL of total membranes obtained from cells expressing human GPR6 receptors is added. The membranes are prepared in assay buffer and added per well to 15 μg/well final assay concentration. […] Scintillator sheet (1450-411, PerkinElmer, USA) is melted on filters and heat-sealed before CPM/well were quantified in MICROBETA® Trilux instrument (PerkinElmer, USA). […] The IC50 and Ki values are calculated using non-linear regression analysis in Prism (GraphPad, USA). Kd values are determined in standard radioligand saturation experiments.
# 6-OHDA rat model = test: 6-Hydroxydopamine (6-OHDA) rat model of Parkinson's disease, locomotor activity; format: in vivo
# Method: Compounds that improve motor activity are considered promising as potential therapies for Parkinson's disease. Rats of the 6-OHDA model of Parkinson's disease received bilateral injections of 6-OHDA into the striatum and coordinates Anterior-Posterior (AP): Medial-Lateral (ML): Dorsal-Ventral (DV), 1±3, −5 mm relative to Bregma under anaesthesia. Rats were tested for locomotor activity at least 28 days later.
# Locomotor activity was measured in an open field arena covered in an array of infrared beams. Beam breaks by the animals were processed using AMLOGGER software to monitor activity.
# conscious beagle dogs = test: Effects on the cardiovascular system using telemetry in conscious beagle dogs; format: in vivo, dog; conditions: single oral gavage doses 30, 100 and 300 mg/kg, compared to vehicle
# From the text: The beagle dogs are equipped with telemetry devices from DSI PHYSIOTEL® Digital L21 transmitter implants according to the appropriate Charles River Laboratories, Montreal, QC Standard Operating Procedure (TB 12-04-06). The biopotential leads are placed in a modified lead II configuration. A minimum acclimation period of 6 days is allowed between animal arrival and the start of the surgical implantation of the telemetry devices in order to accustom the animals to the laboratory environment. A minimum recovery period of 4 weeks is allowed between surgeries and the start of treatment. […]
# The parameters monitored include: heart rate derived from blood pressure, left ventricular pressure (LVP), and electrocardiogram waveforms; LVP (peak systolic and end-diastolic LVP and max positive/negative dP/dt values); electrocardiogram (PR interval (PR), RR variability (RR″), QRS complex (QRS), QT intervals, and QTcv calculated using the Van de Water equation QTcv=QT−87(60/HR−1)); and body temperature.
# Marking of ECG segments is conducted using ECG Pattern Recognition software. A library for each animal is constructed of representative cycles from both the day and night cycle and is applied across monitoring occasions to ensure appropriate marking for quantitative assessments, in accordance with the appropriate Charles River Laboratories, Montreal, QC. […]
# Chain of GPR6 receptor expressed in CHO-K1 cells (P46095 whole entry): as above
Structure (SMILES),pEC50 [1],IC50 (human hERG) [nM],safety margin relative to inhibition of hERG (human hERG),Ki (human GPR6) [nM],hERG inhibition potency compared with Compound A (human hERG; comparison in words),"locomotor activity (6-OHDA rat model; 5 mg/kg and 10 mg/kg, compared to vehicle, after 50 minutes, FIG. 1)",locomotor activity (6-OHDA rat model; 10 mg/kg dose),"arterial blood pressures, contractility, P-R interval, QRS complex, QT interval durations (conscious beagle dogs)"
"CC(=O)N1CCc2nc(N3CCC(Oc4ccc(F)cc4F)CC3)c(N[C@H]3CCOC3)nc2C1 [Compound A, (S)-1-(2-(4-(2,4-difluorophenoxy)piperidin-1-yl)-3-((tetrahydrofuran-3-yl)amino)-7,8-dihydropyrido[3,4-b]pyrazin-6(5H)-yl)ethan-1-one, reference compound]",7.2,505,suboptimal safety margin,6,,,,
"CC(=O)N1CCc2nc(N3CCC(Oc4ccc(F)cc4F)CC3)c(N[C@@H]3CCOC3)nc2C1 [Formula 1, (R)-1-(2-(4-(2,4-difluorophenoxy)piperidin-1-yl)-3-((tetrahydrofuran-3-yl)amino)-7,8-dihydropyrido[3,4-b]pyrazin-6(5H)-yl)ethan-1-one]",7.2,1970,improved SM-free,5.5,significantly less potent inhibitor of hERG than Compound A,dose dependent improvement in locomotor activity,significant increase in activity,No changes are observed
